For data set [1], the system named is rd10 mice. Nature of the data set: In vivo efficacy in rd10 mouse model of retinitis pigmentosa, electroretinographic (ERG) analysis. The following applies: for retinal function measured by ERG activity: 3 μL of 20 mM solution per eye daily for 11 days, scotopic conditions, vs untreated rd10. Here is the method: rd10 mice were treated by ocular instillation with phosphate buffered saline (PBS) containing the compounds of the invention (1, 35, 50, 56 and 70) for 11 days (from P14 to P24). Animals were dark adapted for 8 hours at P25 and full-field flash electroretinographic (ERG) responses were recorded with the retina illuminated with a LED-driven Ganzfeld dome. A series of light flashes of increasing intensity, from 0.001 to 10 cd s/m^2, were averaged both in scotopic (dark-adapted) and photopic (light adapted) conditions. Photopic cone responses were recorded following 5 min of light adaptation with a background white light (30 cd/m^2). Light intensity was controlled for each animal group (Mavo-Monitor USB, Gossen, Germany). The stimulation protocols were designed according to the International Society for Clinical Electrophysiology of Vision. Briefly, mice were anesthetized with intraperitoneal administration of a saline solution containing ketamine (95 mg/kg) and xylazine (5 mg/kg) and kept on a 37° C. heating pad. Ocular instillation of 1% tropicamide was applied to induce mydriasis. ERG responses were recorded from both eyes in response to a Ganzfeld stimulator under light flashes. A total of 4 to 64 consecutive stimuli were averaged, with an interval between light flashes in scotopic conditions of 10 s for dim flashes and of up to 60 s for the highest intensity for every light intensity used. For photopic conditions, a one-second interval between light flashes was used. ERG signals were amplified, and band filtered between 0.3 and 1000 Hz (CP511 AC amplifier; Grass Instruments, Quincy, MA, USA). Electrical signals were digitized at 20 kHz with a power laboratory data acquisition board (AD Instruments, Chalgrove, UK).
ERGs were performed using an electrode fixed to a corneal lens (Burian-Allen electrode; Hansen Ophthalmic Development Laboratory, Coralville, IA, USA) and a reference electrode fixed to the mouth, with a ground electrode placed in the tail. Rod-mediated responses were recorded from light flashes ranging from 0.001 to 10 cd s/m^2 with dark-adapted mice. Mixed rod- and cone-mediated signals were recorded in response to −1.5 to 1.5 log cd s/m^2 light flashes. Oscillatory potential (OP) was isolated using 11 cd s/m^2 white flashes, with a recording frequency ranging between 100 and 10,000 Hz. For recording of cone-mediated responses, we applied light flashes ranging from 0.5 to 2 log cd s/m^2 on a rod-saturating background of 30 cd s/m^2. Amplitudes of the a-wave and b-wave were averaged, using data provided by a researcher with no information regarding the experimental condition of mice.
Data correspond to a pool of 3 independent experiments (N=3) with 4-5 mice per experimental group. Data are expressed as mean+/−standard deviation. Unpaired t-test was used for statistical analysis.

Data set [2] concerns rd10 mice. Description: Morphometric analysis of the retina (immunohistochemistry, rhodopsin and cone arrestin). The class given is in vivo, mouse. The following applies: 3 μL of 20 mM solution per eye for 11 days; vs untreated rd10. On the procedure:
A detailed morphometric analysis, based on immunohistochemistry, was performed. For this purpose, rd10 mice were treated by ocular instillation with phosphate buffered saline (PBS) containing compound 35 (3 μL of 20 mM solution per eye) for 11 days (from P14 to P24). At P25 eyeballs were enucleated and fixed with 4% paraformaldehyde (in PBS) for 3 hours. The anterior segment and lens were dissected, and the eyecups were incubated in 30% sucrose (in PBS) for 12 h at 4° C. Cryosection with DAPI. ocular cryosections were stained with DAPI, rhodopsin and cone arrestin for immunohistochemical analysis. Briefly, cryosections were incubated with antibodies against rhodopsin (Millipore, MABN15) and cone arrestin (Millipore, AB15282) both at 1:400 for 8 h at 4° C. and buffered with secondary antibodies both at 1:400 and DAPI (Sigma, D89542) 1:1000 for 1 hour. The sections were analyzed by fluorescent microscopy.

Data set [3] deals with rd10 mice. Description: Optokinetic response based on a modified Morris water maze. The class given is in vivo, mouse. The following applies: daily ocular instillation for 16 days; spatial frequencies 0.01; 0.02; 0.17 and 0.35 cycles/degree. On the procedure: rd10 mice were treated by ocular instillation with phosphate buffered saline (PBS) containing the compound 35 of the invention for 16 days (from P14 to P29). To study optokinetic (OKT) response, we conducted an OKT test in combination with a modified Morris water maze using 9 rd10 mice at p30: 5 treated with compound 35 and 4 untreated. Animals were adapted to the experimental conditions for 1 week before behavioral testing. Mice were trained in a square pool (70×40 cm) filled with water (24-26-C), with all sides opaque, except the frontal side, where a screen was placed. The screen was divided vertically into 2 equal parts. A pattern of moving vertical bars was presented on one half of the screen, with the other half turned off. The direction of the bars was random: 50% of the time moving to the right and 50% of the time moving to the left. The bar velocity was constant throughout the process. Mice were trained for one week to associate the area of the screen with moving bars with the presence of a submerged platform, not visible to the mice under the dim light conditions, that was placed right next to that area of the screen. The platform allowed the mice to escape from the water. […] Contrast sensitivity values were measured, and the results of treated and untreated mice were compared.

A short description of data set [4]: Retinal biodistribution after topical ocular administration, HPLC-MS of retina (mouse). The data set is classed as in vivo. The following applies: formulated with 0.2% hyaluronic acid vs PBS solution; 4 h after single ocular instillation. On the procedure:
Ocular instillation with PBS solutions containing 0.2% hyaluronic acid (HA) and the selected compounds of the invention were administered: 17 μg/eye (3 μL of 20 mM solution per eye) in mouse; 65 μg/eye (10 μL of 17 mM solution per eye) in rat; and 559 μg/eye (50 μL of 40 mM solution per eye) in swine. Animals were sacrificed after 4 hours (mouse, rabbit and swine) or after 24 hours (rats) of treatment to determinate the availability of the compounds in the retina. Retinas were mechanically homogenized in physiological serum ([…]) and processed to analyze the compounds availability by HPLC-MS.

Another data set deals with 661W cells. Nature of the data set: Prevention of 9-cis-Retinal and light-induced phototoxicity, impedance recording. The following applies: Mus musculus, light or radiation study, 20 μM 9-cis-Retinal, 30,000 luxes white light, impedance converted to percentage of cytolysis, read-out: EC50 of protection against phototoxicity. The class given is cell-based. Here is the method:
661W cells were seeded onto 96-wells MEA impedance plates (50,000 cells/well) and grown until confluence in the Maestro Edge equipment (Axion Biosystems) at 37° C. and 5% CO2. When impedance reaches a plateau, phototoxicity is induced by addition of 20 μm 9-cis retinal and 30,000 luxes of white light. Increasing concentrations of compound 35 were added (A). Impedance was recorded every minute for 24 hours and was converted to percentage of cytolysis (B). 661 W cells were seeded in a 96-wells impedance plate (50,000 cells/well), previously coated with ECM 1:100, and grown O/N at 37° C. and 5% CO2 in DMEM/F-12 (Thermo Fisher, 11320033) supplemented with 40 μL/L hydrocortisone 21-hemisuccinate (Sigma, H-2270), 40 μL/L progesterone (Sigma, P-8783), 0.032 g/L putrescine (Sigma, P-7505), 40 μL/L β-mercaptoethanol (Sigma, M-6250), antibiotic-antimycotic solution (Sigma, A5955) and 10% fetal bovine serum (FBS). After 8 h, the medium was replaced by DMEM/F-12 without FBS or complements to remove cellular debris. When cells arrived at a plateau in the impedance recording (4-8 hours after the medium change, depending on the culture plate) compound 35 was added and two hours later the 9-cis-Retinal (Cf=20 μM) was added. The cells were placed in the Maestro Z and exposed to 30,000 white light luxes. to register the impedance.

Data set [5] is described as follows: Retinal biodistribution by in vivo autoradiography after ocular instillation. Also noted: species or system Sprague-Dawley rats. The following applies: 5 μL/eye of 20 mM PBS solution, autoradiography at 1, 8 and 24 h. On the procedure:
In order to test the bioavailability of the compounds 1, 24, 35, 53, 66 and 67 to the retina, the following species we used: mouse, rat, rabbit and swine. Animals were treated under anesthesia. In vivo autoradiography imaging was conducted at 1, 8 and 24 hours following the ocular instillation of compound [^3H]-35 (5 μL/eye) as a phosphate buffered saline (PBS) 20 mM solution under carrier added conditions (ca. 7 mBq/eye) on Sprague-Dawley rats (n=4 for each time point). After the enucleation, the eye was incubated firstly in an aqueous solution at 4% of paraformaldehyde for 4 hours, then in aqueous solution at 10% and 20% of sucrose for 2 hours each and finally in aqueous solution at 30% of sucrose for one week. All the incubations were at 4° C. The samples were fixed in OCT (optimal cutting temperature polymer) and fine 20-μm sections of eye were cut using a Leyca cryostat (Leica CM3050 S, Germany) at −24° C. The slices (20 μm thick) were disposed on glass slides (Superfrost Plus, Labolan). Autoradiography was performed in Beta Imager 2000 system (Biospace Lab, France), for 1 h on four consecutive slices of the central part of the organ where all the parts are visible (FIG. 1 A).

Structures are written as SMILES.

For `COc1ccc(OCc2cn(CCN(C)C)nn2)cc1` [Compound 1, 1-[2-(N,N-dimethylamino)ethyl]-4-[(4-methoxyphenoxy)methyl]-1H-1,2,3-triazole], the “retinal function measured by ERG activity” value (“retinal function measured” for short) in the data set with rd10 mice [1] was “increased retinal function”.
The term EC50 denotes the midpoint of the concentration-response curve. Regarding `COc1ccc(SCc2cn(CCN(C)C)nn2)cc1` [Compound 35, 1-[2-(N,N-dimethylamino)ethyl]-4-[(4-methoxyphenyl)thiomethyl]-1H-1,2,3-triazole], the “preservation of photoreceptors (number of rods and cones per square mm, rod outer and inner segment)” value in the data set with rd10 mice [2] is on record as “significant preservation of photoreceptors”. Also, the “contrast sensitivity (visual acuity), treated vs untreated” value in the data set on rd10 mice [3] was “greatest differences were observed in the outlier values of spatial frequency”. Besides, the “cone function: recovery score vs. WT” value in the data set on rd10 mice [1] (0.2 cd s/m^2 light intensity) was 78%. In addition, in the data set on rd10 mice [1] (0.2 cd s/m^2 light intensity, vs rd10 control group), the “cone function: increase of ERG amplitude” value amounted to 66%. Also, the “retinal function measured” value in the data set with rd10 mice [1] was “increased retinal function”. The “delivery percentage to the mouse retina (percentage of administered dose per gram of retina)” value in data set [4] is “higher delivery percentage”. In addition, in the data set on 661W cells, the EC50 turned out to be 30.5 nM.
On to `COc1ccc(SCc2cn(CCCNC(=N)NC(=N)N)nn2)cc1` [Compound 50, 1-[3-(biguanidinyl)propyl]-4-[(4-methoxyphenyl)thiomethyl]-1H-1,2,3-triazole], for which the “retinal function measured” value in the data set on rd10 mice [1] is recorded as “increased retinal function”.
As to `[3H]c1c(CSc2ccc(OC)cc2)nnn1CCN(C)C` [Compound 52, 1-[2-(N,N-dimethylamino)ethyl]-5-trithium-4-[(4-methoxyphenyl)thiomethyl]-1H-1,2,3-triazole], in data set [5], the “time after administration up to which compound was detected in rat retina” value is given as “up to 24 h” and the “time of peak concentration in rat retina” value was “around 8 h”.
On to `[O-][S+](Cc1cn(CCN2CCCCC2)nn1)c1cccc(C(F)(F)F)c1` (stereo not shown) [Compound 56, 1-[2-(piperidin-1-yl)ethyl]-4-[(3-trifluoromethylphenyl)sulfinylmethyl]-1H-1,2,3-triazole], for which the “retinal function measured” value in the data set on rd10 mice [1] is listed as “increased retinal function”.
Regarding `CC(C)c1ccc(S(=O)(=O)Cc2cn(CCN3CCOCC3)nn2)cc1` [Compound 70, 4-[(4-isopropylphenyl)sulfonylmethyl]-1-[2-(4-morpholinyl)ethyl]-1H,1,2,3-triazole], the “retinal function measured” value in the data set on rd10 mice [1] is given as “increased retinal function”.
